According to patent US20260306644A1, “ANTIBODY RECRUITING MOLECULES FOR THE TREATMENT OF CORONAVIRUS DISEASE-19” (priority 2023, published 2026):
Several values for one entry are separate records, joined by “and”; a condition that tells them apart may be missing. Equal values may be shown once.

Assays:
SARS-CoV-2 Spike protein = SARS-CoV-2 Spike protein (Severe acute respiratory syndrome coronavirus 2, UniProt P0DTC2); experiment: Ternary binding of SARS-CoV-2 Spike protein (293T cells expressing Spike-GFP, IgG-AF647, flow cytometry); assay type: cell-based; details: 293T cells expressing Spike-GFP; IgG-AF647 10 μg/ml; repeat values/batches listed separately; read-out: SARS-CoV-2 Ternary binding EC50
[1] = target: T1, SARS-CoV-2 Spike A (wild-type) (Severe acute respiratory syndrome coronavirus 2, UniProt P0DTC2); experiment: MSD ACE2 competition assay (inhibition of Spike binding with ACE2, ECL), A (wild-type); details: IC50 Wild Type, Wild Type Spike
T1 construct: purchased Meso Scale Diagnostics, LLC V-PLEX SARS-CoV-2 Panel 13 (ACE2) Kit / Panel 23 (ACE2) Kit

| Structure (SMILES) | EC50 (SARS-CoV-2 Spike protein) | IC50 [1] |
| --- | --- | --- |
| CC[C@H](C)[C@H](NC(=O)[C@H](CC(C)C)NC(=O)[C@H](CC(=O)O)NC(=O)[C@H](CO)NC(=O)[C@@H](NC(=O)[C@H](CCCNC(=N)N)NC(=O)[C@H](CCSC)NC(=O)[C@H](CO)NC(=O)[C@H](C)NC(=O)[C@H](CCC(=O)O)NC(=O)[C@H](C)NC(=O)[C@H](Cc1c[nH]cn1)NC(=O)CNC(=O)[C@H](CC(C)C)NC(=O)[C@H](CCC(=O)O)NC(=O)[C@H](CC(=O)O)NC(=O)[C@H](CC(C)C)NC(=O)[C@H](CC(C)C)NC(=O)[C@H](CCCNC(=N)N)NC(=O)[C@H](CCSC)NC(=O)[C@@H](NC(=O)[C@H](CCC(=O)O)NC(=O)[C@H](Cc1ccc(O)cc1)NC(=O)[C@@H](NC(=O)[C@H](CCCCN)NC(=O)[C@H](CCC(N)=O)NC(=O)[C@H](CC(C)C)NC(=O)[C@@H](NC(=O)[C@H](Cc1c[nH]c2ccccc12)NC(=O)[C@H](CCC(=O)O)NC(=O)[C@H](CCCCN)NC(=O)[C@@H](N)CC(=O)O)[C@@H](C)CC)[C@@H](C)CC)[C@@H](C)CC)C(C)C)C(=O)N[C@@H](Cc1ccc(O)cc1)C(=O)N[C@@H](CCC(=O)O)C(=O)N[C@@H](Cc1ccccc1)C(=O)N[C@@H](CCSC)C(=O)N[C@@H](CCCCN)C(=O)N[C@@H](CCCCN)C(=O)NCC(=O)N[C@@H](CC(=O)O)C(=O)N[C@H]1CSSC[C@@H](C(=O)N[C@H](C(=O)O)[C@@H](C)O)NC(=O)[C@H](Cc2c[nH]c3ccccc23)NC(=O)[C@H](C(C)C)NC(=O)[C@H](CC(C)C)NC(=O)[C@H](CCC(=O)O)NC(=O)CNC(=O)[C@H](CC(C)C)NC(=O)[C@H](Cc2c[nH]cn2)NC(=O)[C@H](Cc2c[nH]c3ccccc23)NC(=O)[C@H](C)NC1=O [Compound 113] | 0.48 nM and 0.47 nM | 41.2 nM and 52.9 nM |
| CC[C@H](C)[C@H](NC(=O)[C@H](CC(C)C)NC(=O)[C@H](CC(=O)O)NC(=O)[C@H](CO)NC(=O)[C@@H](NC(=O)[C@H](CCCNC(=N)N)NC(=O)[C@H](CCSC)NC(=O)[C@H](CO)NC(=O)[C@H](C)NC(=O)[C@H](CCC(=O)O)NC(=O)[C@H](C)NC(=O)[C@H](Cc1c[nH]cn1)NC(=O)CNC(=O)[C@H](CC(C)C)NC(=O)[C@H](CCC(=O)O)NC(=O)[C@H](CC(=O)O)NC(=O)[C@H](CC(C)C)NC(=O)[C@H](CC(C)C)NC(=O)[C@H](CCCNC(=N)N)NC(=O)[C@H](CCSC)NC(=O)[C@@H](NC(=O)[C@H](CCC(=O)O)NC(=O)[C@H](Cc1ccc(O)cc1)NC(=O)[C@@H](NC(=O)[C@H](CCCCN)NC(=O)[C@H](CCC(N)=O)NC(=O)[C@H](CC(C)C)NC(=O)[C@@H](NC(=O)[C@H](Cc1c[nH]c2ccccc12)NC(=O)[C@H](CCC(=O)O)NC(=O)[C@H](CCCCN)NC(=O)[C@@H](N)CC(=O)O)[C@@H](C)CC)[C@@H](C)CC)[C@@H](C)CC)C(C)C)C(=O)N[C@@H](Cc1ccc(O)cc1)C(=O)N[C@@H](CCC(=O)O)C(=O)N[C@@H](Cc1ccccc1)C(=O)N[C@@H](CCSC)C(=O)N[C@@H](CCCCN)C(=O)N[C@@H](CCCCN)C(=O)N[C@@H](CC(=O)O)C(=O)N[C@H]1CSSC[C@@H](C(=O)N[C@H](C(=O)O)[C@@H](C)O)NC(=O)[C@H](Cc2c[nH]c3ccccc23)NC(=O)[C@H](C(C)C)NC(=O)[C@H](CC(C)C)NC(=O)[C@H](CCC(=O)O)NC(=O)CNC(=O)[C@H](CC(C)C)NC(=O)[C@H](Cc2c[nH]cn2)NC(=O)[C@H](Cc2c[nH]c3ccccc23)NC(=O)[C@H](C)NC1=O [Compound 115] | 0.34 nM and 0.36 nM and 0.23 nM and 0.26 nM | 45.7 nM |
| CC[C@H](C)[C@H](NC(C)=O)C(=O)N[C@@H](CC(C)C)C(=O)N[C@@H](CCC(N)=O)C(=O)N[C@@H](CCCCN)C(=O)N[C@H](C(=O)N[C@@H](Cc1ccc(O)cc1)C(=O)N[C@@H](CCC(=O)O)C(=O)N[C@H](C(=O)N[C@@H](CCSC)C(=O)N[C@@H](CCCNC(=N)N)C(=O)N[C@@H](CC(C)C)C(=O)N[C@@H](CC(C)C)C(=O)N[C@@H](CC(=O)O)C(=O)N[C@@H](CCC(=O)O)C(=O)N[C@@H](CC(C)C)C(=O)NCC(=O)N[C@@H](Cc1c[nH]cn1)C(=O)N[C@@H](C)C(=O)N[C@@H](CCC(=O)O)C(=O)N[C@@H](C)C(=O)N[C@@H](CO)C(=O)N[C@@H](CCSC)C(=O)N[C@@H](CCCNC(=N)N)C(=O)N[C@H](C(=O)N[C@@H](CO)C(=O)N[C@@H](CC(=O)O)C(=O)N[C@@H](CC(C)C)C(=O)N[C@H](C(=O)N[C@@H](Cc1ccc(O)cc1)C(=O)N[C@@H](CCC(=O)O)C(=O)N[C@@H](Cc1ccccc1)C(=O)N[C@@H](CCSC)C(=O)N[C@@H](CCCCN)C(=O)N[C@@H](CCCCN)C(=O)NCC(=O)N[C@@H](CC(=O)O)C(=O)N[C@H]1CSSC[C@@H](C(=O)N[C@H](C(=O)O)[C@@H](C)O)NC(=O)[C@H](Cc2c[nH]c3ccccc23)NC(=O)[C@H](C(C)C)NC(=O)[C@H](CC(C)C)NC(=O)[C@H](CCC(=O)O)NC(=O)CNC(=O)[C@H](CC(C)C)NC(=O)[C@H](Cc2c[nH]cn2)NC(=O)[C@H](Cc2c[nH]c3ccccc23)NC(=O)[C@H](C)NC1=O)[C@@H](C)CC)C(C)C)[C@@H](C)CC)[C@@H](C)CC [Compound 116] | 9.3 nM and 11 nM | > 100 nM (2×) and 114 nM |
| CC[C@H](C)[C@H](N)C(=O)N[C@@H](CC(C)C)C(=O)N[C@@H](CCC(N)=O)C(=O)N[C@@H](CCCCN)C(=O)N[C@H](C(=O)N[C@@H](Cc1ccc(O)cc1)C(=O)N[C@@H](CCC(=O)O)C(=O)N[C@H](C(=O)N[C@@H](CCSC)C(=O)N[C@@H](CCCNC(=N)N)C(=O)N[C@@H](CC(C)C)C(=O)N[C@@H](CC(C)C)C(=O)N[C@@H](CC(=O)O)C(=O)N[C@@H](CCC(=O)O)C(=O)N[C@@H](CC(C)C)C(=O)NCC(=O)N[C@@H](Cc1c[nH]cn1)C(=O)N[C@@H](C)C(=O)N[C@@H](CCC(=O)O)C(=O)N[C@@H](C)C(=O)N[C@@H](CO)C(=O)N[C@@H](CCSC)C(=O)N[C@@H](CCCNC(=N)N)C(=O)N[C@H](C(=O)N[C@@H](CO)C(=O)N[C@@H](CC(=O)O)C(=O)N[C@@H](CC(C)C)C(=O)N[C@H](C(=O)N[C@@H](Cc1ccc(O)cc1)C(=O)N[C@@H](CCC(=O)O)C(=O)N[C@@H](Cc1ccccc1)C(=O)N[C@@H](CCSC)C(=O)N[C@@H](CCCCN)C(=O)N[C@@H](CCCCN)C(=O)NCC(=O)N[C@@H](CC(=O)O)C(=O)N[C@H]1CSSC[C@@H](C(=O)N[C@H](C(=O)O)[C@@H](C)O)NC(=O)[C@H](Cc2c[nH]c3ccccc23)NC(=O)[C@H](C(C)C)NC(=O)[C@H](CC(C)C)NC(=O)[C@H](CCC(=O)O)NC(=O)CNC(=O)[C@H](CC(C)C)NC(=O)[C@H](Cc2c[nH]cn2)NC(=O)[C@H](Cc2c[nH]c3ccccc23)NC(=O)[C@H](C)NC1=O)[C@@H](C)CC)C(C)C)[C@@H](C)CC)[C@@H](C)CC [Compound 117] | 4.9 nM and 4.4 nM | 54.8 nM and 61.1 nM |
| CC[C@H](C)[C@H](NC(=O)[C@H](CC(C)C)NC(=O)[C@H](CC(=O)O)NC(=O)[C@H](CO)NC(=O)[C@@H](NC(=O)[C@H](CCCNC(=N)N)NC(=O)[C@H](CCSC)NC(=O)[C@H](CO)NC(=O)[C@H](C)NC(=O)[C@H](CCC(=O)O)NC(=O)[C@H](C)NC(=O)[C@H](Cc1c[nH]cn1)NC(=O)CNC(=O)[C@H](CC(C)C)NC(=O)[C@H](CCC(=O)O)NC(=O)[C@H](CC(=O)O)NC(=O)[C@H](CC(C)C)NC(=O)[C@H](CC(C)C)NC(=O)[C@H](CCCNC(=N)N)NC(=O)[C@H](CCSC)NC(=O)[C@@H](NC(=O)[C@H](CCC(=O)O)NC(=O)[C@H](Cc1ccc(O)cc1)NC(=O)[C@@H](NC(=O)[C@H](CCCCN)NC(=O)[C@H](CCC(N)=O)NC(=O)[C@H](CC(C)C)NC(=O)[C@@H](NC(=O)[C@H](Cc1c[nH]c2ccccc12)NC(=O)[C@H](CCC(=O)O)NC(=O)[C@H](CCCCN)NC(=O)[C@H](CC(=O)O)NC(=O)[C@@H](NC(=O)[C@@H]1CSSC[C@H](NC(=O)[C@H](CC(=O)O)NC(C)=O)C(=O)N[C@@H](C)C(=O)N[C@@H](Cc2c[nH]c3ccccc23)C(=O)N[C@@H](Cc2c[nH]cn2)C(=O)N[C@@H](CC(C)C)C(=O)NCC(=O)N[C@@H](CCC(=O)O)C(=O)N[C@@H](CC(C)C)C(=O)N[C@@H](C(C)C)C(=O)N[C@@H](Cc2c[nH]c3ccccc23)C(=O)N1)[C@@H](C)O)[C@@H](C)CC)[C@@H](C)CC)[C@@H](C)CC)C(C)C)C(=O)N[C@@H](Cc1ccc(O)cc1)C(=O)N[C@@H](CCC(=O)O)C(=O)N[C@@H](Cc1ccccc1)C(=O)N[C@@H](CCSC)C(=O)N[C@@H](CCCCN)C(=O)N[C@@H](CCCCN)C(=O)O [Compound 121] | 0.83 nM and 0.78 nM | 10.8 nM |
| CC[C@H](C)[C@H](NC(=O)[C@H](CC(C)C)NC(=O)[C@H](CC(=O)O)NC(=O)[C@H](CO)NC(=O)[C@@H](NC(=O)[C@H](CCCNC(=N)N)NC(=O)[C@H](CCSC)NC(=O)[C@H](CO)NC(=O)[C@H](C)NC(=O)[C@H](CCC(=O)O)NC(=O)[C@H](C)NC(=O)[C@H](Cc1c[nH]cn1)NC(=O)CNC(=O)[C@H](CC(C)C)NC(=O)[C@H](CCC(=O)O)NC(=O)[C@H](CC(=O)O)NC(=O)[C@H](CC(C)C)NC(=O)[C@H](CC(C)C)NC(=O)[C@H](CCCNC(=N)N)NC(=O)[C@H](CCSC)NC(=O)[C@@H](NC(=O)[C@H](CCC(=O)O)NC(=O)[C@H](Cc1ccc(O)cc1)NC(=O)[C@@H](NC(=O)[C@H](CCCCN)NC(=O)[C@H](CCC(N)=O)NC(=O)[C@H](CC(C)C)NC(=O)[C@@H](NC(=O)[C@H](Cc1c[nH]c2ccccc12)NC(=O)[C@H](CCC(=O)O)NC(=O)[C@H](CCCCN)NC(=O)[C@H](CC(=O)O)NC(C)=O)[C@@H](C)CC)[C@@H](C)CC)[C@@H](C)CC)C(C)C)C(=O)N[C@@H](Cc1ccc(O)cc1)C(=O)N[C@@H](CCC(=O)O)C(=O)N[C@@H](Cc1ccccc1)C(=O)N[C@@H](CCSC)C(=O)N[C@@H](CCCCN)C(=O)N[C@@H](CCCCN)C(=O)NCC(=O)N[C@@H](CC(=O)O)C(=O)N[C@H]1CSSC[C@@H](C(=O)N[C@H](C(N)=O)[C@@H](C)O)NC(=O)[C@H](Cc2c[nH]c3ccccc23)NC(=O)[C@H](C(C)C)NC(=O)[C@H](CC(C)C)NC(=O)[C@H](CCC(=O)O)NC(=O)CNC(=O)[C@H](CC(C)C)NC(=O)[C@H](Cc2c[nH]cn2)NC(=O)[C@H](Cc2c[nH]c3ccccc23)NC(=O)[C@H](C)NC1=O [Compound 129] | 2.3 nM and 3 nM | 25 nM |
